The numbers were not newly measured in patent publication US20110086355A1, “BRCA1 mRNA EXPRESSION LEVELS PREDICT SURVIVAL IN BREAST CANCER PATIENTS TREATED WITH NEOADJUVANT CHEMOTHERAPY” (PANGAEA BIOTECH, S.A., priority 2008, published 2011), which cites them from elsewhere.

Data set [1] deals with Mouse models carrying conditional disruption of BRCA1.
The next data set has as its system breast cancer cell line. The settings on record: BRCA1 mRNA determined by RT-QPCR.
Data set [2] has as its system SKOV-3 human ovarian cancer cell line.
Data set [3] has as its system HCC1937 breast cancer cell line. As to conditions: wild-type BRCA1 reconstituted vs BRCA1-negative HCC1937.

On to `CC/C(=C(\c1ccccc1)c1ccc(OCCN(C)C)cc1)c1ccccc1` [tamoxifen], for which, in data set [1], the “sensitivity of BRCA1-disrupted mouse models” value is recorded as “resistant”.
As to `CC(=O)O[C@H]1C(=O)[C@@]2(C)[C@H]([C@H](OC(=O)c3ccccc3)[C@]3(O)C[C@H](OC(=O)[C@H](O)[C@@H](NC(=O)c4ccccc4)c4ccccc4)C(C)=C1C3(C)C)[C@]1(OC(C)=O)CO[C@@H]1C[C@@H]2O` [paclitaxel], the “change of sensitivity after decreased BRCA1 mRNA expression” value in the data set with breast cancer cell line is recorded as “greater resistance”.
Turning to `COc1cccc2c1C(=O)c1c(O)c3c(c(O)c1C2=O)C[C@@](O)(C(=O)CO)C[C@@H]3O[C@H]1C[C@H](N)[C@H](O)[C@H](C)O1` [doxorubicin], the “sensitivity of BRCA1-disrupted mouse models” value in data set [1] is “highly sensitive”.
Take `CC[C@]1(O)C[C@H]2CN(CCc3c([nH]c4ccccc34)[C@@](C(=O)OC)(c3cc4c(cc3OC)N(C=O)[C@H]3[C@@](O)(C(=O)OC)[C@H](OC(C)=O)[C@]5(CC)C=CCN6CC[C@]43[C@@H]65)C2)C1` [vincristine]: in the data set with breast cancer cell line, the “change of sensitivity after decreased BRCA1 mRNA expression” value is reported as “greater resistance”.
Take `N.N.[Cl][Pt][Cl]` [cisplatin]: the “resistance after upregulation of BRCA1 expression” value in data set [2] is recorded as “increased cisplatin resistance”. The “change of sensitivity after decreased BRCA1 mRNA expression” value with breast cancer cell line is given as “greater sensitivity”. The increase in resistance in data set [3] was 20 fold.
Consider `COc1cc([C@@H]2c3cc4c(cc3[C@@H](O[C@@H]3O[C@@H]5CO[C@@H](C)O[C@H]5[C@H](O)[C@H]3O)[C@H]3COC(=O)[C@H]23)OCO4)cc(OC)c1O` [etoposide], for which, in the data set with breast cancer cell line, the “change of sensitivity after decreased BRCA1 mRNA expression” value is listed as “greater sensitivity”.
